Read-outs that look alike come from different tables or passages of the source.
What was measured:
[1] = system: ZIKV-induced cell death in human astrocytes; experiment: ATP cell viability assay for ZIKV-induced cell death, human astrocytes; type: cell-based; details: ZIKV-infected human astrocytes
[2] = system: ZIKV-induced cell death in hNPCs; experiment: ATP cell viability assay for ZIKV-induced cell death, hNPCs; type: cell-based, human; details: ZIKV-infected hNPCs
Procedure: (§1) The reagent was reconstituted and prepared as described by the manufacturer. In order to measure the cell death caused by ZIKV infection, cells were cultured for 16 hours at 37° C. with 5% CO2 in assay plates, followed by the addition of ZIKV solution and incubation at 37° C. with 5% CO2 for 72 hours. ATPlite, the ATP monitoring reagent, was then added to the assay plates and they were incubated for 15 minutes. The resulting luminescence was measured using the ViewLux plate reader (Perkin Elmer). Data were normalized using the wells without cells as a control for 100% cell killing, and cell-containing wells without ZIKV infection were used as full cell viability (0% cell killing).
Human NPCs were seeded onto PDL coated 1536-well assay plates at 250 cells per 3 μl/well and incubated at 37° C. in 5% CO2 for 16 hours. Test compounds dissolved in DMSO were transferred to assay plates at a volume of 23 nl/well by an automated pintool workstation (Wako Automation, San Diego, Calif.). Compounds were incubated with cells for 30 minutes at 37° C. in 5% CO2, immediately followed by the addition of 2 μl/well of ZIKV. Incubation time of compound-treated cells with ZIKV varied based on assay format. Experiments measuring virus-induced caspase 3/7 activity required a 6 hour incubation of ZIKV in the presence compounds at 37° C. in 5% CO2. Following this incubation, 3.5 μl/well of caspase 3/7 reagent mixture was added to assay plates. The plates were incubated for 30 minutes at room temperature, and the resultant luminescence signal was measured using a ViewLux plate reader (Perkin Elmer). Experiments measuring virus-induced cell death required a 72-hour incubation of ZIKV in the presence of compounds at 37° C. in 5% CO2. Following this incubation, 3.5 μl/well of ATP content detection reagent was added to assay plates, incubated for 30 minutes at the room temperature, and the resultant luminescence signal was measured in a ViewLux plate reader.
as §1, with “The ATPlite luminescence assay system assay kit (PerkinElmer) was used to determine cell viability. The reagent” for “The reagent”, “by the manufacture. In order” for “by the manufacturer. In order”, “followed by addition of” for “followed by the addition of”, “plates and incubated for” for “plates and they were incubated for”, “Elmer). Data was normalized using” for “Elmer). Data were normalized using”
Human NPCs were seeded onto PDL coated 1536-well assay plates at 250 cells per 3 μl/well and incubated at 37° C. in 5% CO2 for 16 hours. Test compounds dissolved in DMSO were transferred to assay plates at a volume of 23 nl/well by an automated pintool workstation (Wako Automation, San Diego, Calif.). Compounds were incubated with cells for 30 minutes at 37° C. in 5% CO2, immediately followed by the addition of 2 μl/well of ZIKV. Incubation time of compound-treated cells with ZIKV varied based on assay format. Experiments measuring virus induced caspase 3/7 activity required a 6 hour incubation of ZIKV in the presence compounds at 37° C. in 5% CO2. Following this incubation, 3 μl/well of caspase 3/7 reagent mixture was added to assay plates, incubated for 30 minute at room temperature, and the resultant luminescence signal was measured using a ViewLux plate reader (Perkin Elmer). Experiments measuring the virus induced cell death required a 72 hour incubation of ZIKV in the presence of compounds at 37° C. in 5% CO2. Following this incubation, 3 μl/well of ATP content detection reagent was added to assay plates, incubated for 30 minute at room temperature, and the resultant luminescence signal was measured in a ViewLux plate reader.

[3] = system: ZIKV-induced caspase 3/7 activity in SNB-19 cells; experiment: Caspase 3/7 activity assay, ZIKV-infected SNB-19 cells; type: cell-based; details: ZIKV-infected SNB-19 cells; for IC50: read-out: Caspase 3 (IC50, uM) SNB-19; for Emax: read-out: Caspase 3 (efficacy, %) SNB-19
In short: (§2)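 Human NPCs, SNB-19 cells or astrocytes seeded 16 h, compound added 30 min before ZIKV, then 6 h infection at 37 °C. Caspase-Glo 3/7 luminescence after 30 min at room temperature, normalized to uninfected cells (0%) and ZIKV-infected cells (100%).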

[4] = system: ZIKV-induced caspase 3/7 activity in human astrocytes; experiment: Caspase 3/7 activity assay, ZIKV-infected human astrocytes; type: cell-based; details: ZIKV-infected human astrocytes; for IC50: read-out: Caspase 3 (IC50, uM) Astrocyte; for Emax: read-out: Caspase 3 (efficacy, %) Astrocyte
In short: as §2

SMILES | Cell viability (efficacy, %) Astrocyte [1] [%] | Cell viability (efficacy, %) NPCs [2] [%] | IC50 ([3]; Homo sapiens) [µM] | Emax ([3]; Homo sapiens) [%] | IC50 ([4]; Astrocyte) [µM] | Emax ([4]; Astrocyte) [%] | IC50 ([2]; Homo sapiens, read-out: Cell viability (IC50, uM) NPCs) [µM] | IC50 ([1]; Astrocyte, read-out: Cell viability (IC50, uM) Astrocyte) [µM] | Caspase 3 (efficacy, %) SNB-19 [3] [%] | IC50 [3] [µM] | Caspase 3 (efficacy, %) Astrocyte [4] [%] | IC50 [4] [µM]
Cc1cc(O)c2c(c1)C(=O)c1cc(O)cc(O)c1C2=O [Emodin] | 0.0 | 0.0 | 4.35 | 83.3 | 3.27 | 86.4 |  |  |  |  |  | 
O=C(O)c1ccccc1NCCc1ccccc1 [Enfenamic acid] | 0.0 | 58.5 |  | 49.5 | 25.9 | 58 | 7.74 |  |  |  |  | 
CC(=O)Oc1cccc2c1C(=O)c1c(OC(C)=O)cc(C(=O)O)cc1C2=O [Diacerein] | 35.2 | 0.0 | 17.3 | 63.2 | 15.5 | 72.9 |  | 30.8 |  |  |  | 
C/C1=C2/[N-][C@H]([C@H](CC(N)=O)[C@@]2(C)CCC(=O)NC[C@@H](C)OP(=O)([O-])O[C@H]2[C@@H](O)[C@@H](n3cnc4cc(C)c(C)cc43)O[C@@H]2CO)[C@]2(C)N=C(/C(C)=C3N=C(/C=C4N=C1[C@@H](CCC(N)=O)C\4(C)C)[C@@H](CCC(N)=O)[C@]\3(C)CC(N)=O)[C@@H](CCC(N)=O)[C@]2(C)CC(N)=O.[Co+3].[OH-] [Hydroxocobalamin] | 0.0 | 0.0 |  |  |  |  |  |  | 85.7 | 1.46 | 83.4 | 0.97
O=C1NC(=O)C(=Cc2ccc(-c3ccc(F)cc3)o2)S1 [CAY10505] | 0.0 | 0.0 |  |  |  |  |  |  | 91.2 | 17.3 | 80.1 | 16.4
COc1ccc(-c2cc(=S)ss2)cc1 [Anethole trithione] | 0.0 | 0.0 | 15.5 | 85.5 | 13.8 | 62.7 |  |  |  |  |  | 
c1ccc2[nH]c(-c3cscn3)nc2c1 [Thiabendazole] | 0.0 | 0.0 | 14.6 | 89.4 | 10.3 | 81 |  |  |  |  |  | 
O=C(c1ccccc1)c1ccc2n1CCC2C(=O)O (stereo not drawn) [Ketorolac tromethamine] | 0.0 | 0.0 | 17.3 | 84.5 | 21.8 | 61.7 |  |  |  |  |  | 
c1ccc(CCNc2nc(-c3ccccc3)cs2)cc1 [Fanetizole] | 0.0 | 0.0 | 17.3 | 78.1 | 10.9 | 72.9 |  |  |  |  |  | 
O=C(Oc1ccccc1)c1cccc(C(=O)Oc2ccccc2)c1 [Diphenyl isophthalate] | 0.0 | 0.0 | 4.73 | 92.8 | 6.68 | 104 |  |  |  |  |  | 
CCOCCOC(=O)C=Cc1ccc(OC)cc1 [2-Ethoxylethyl-p-methoxycinnamate] | 0.0 | 0.0 | 27.5 | 53 |  | 0 |  |  |  |  |  | 
O=C(O)c1cc([N+](=O)[O-])ccc1NCCCc1ccccc1 [5-Nitro-2-(3-phenylpropylamino)benzoic acid] | 0.0 | 0.0 | 13 | 82.9 | 9.75 | 82.1 |  |  |  |  |  | 
Nc1nc2ccc([N+](=O)[O-])cc2s1 [2-Amino-6-nitrobenzothiazole] | 0.0 | 0.0 | 53.1 | 46.1 | 39.8 | 54.1 |  |  |  |  |  | 

From US10940188B2, “Compounds and methods for treatment and prevention of Flavivirus infection” (priority 2016, dated 2021)
